From patent publication US8722849B2, “Polypeptides” (Novo Nordisk A/S, priority 2011, dated 2014)
pEC50: −log10 of the molar value. Read-outs that look alike come from different tables or passages of the source. Starred links: 1 amine or outer side, 2 acyl side, 3 side chain; linkers in the order of their positions; H or OH if unused. Positions of bridges follow the written chain, without caps; N, C: chain ends. Residues, ends and D or L forms follow the SMILES beside them. *: point of attachment. C20 diacid = O=C(O)CCCCCCCCCCCCCCCCCCC(=O)*; γGlu = O=C(O)[C@H](CCC(=O)[*:2])N[*:1]; AEEA = NCCOCCOCC(=O)O

How the values were obtained:
[1] = biological target: T1, human amylin receptor (amylin 3(a) receptor: human calcitonin receptor + RAMP-3) (Homo sapiens, UniProt O60896+P30988); assay: Assay (II)a functional CRE-luciferase assay, human amylin receptor; type: cell-based
T1 construct: expressed in transfected cells; host or cells: BHK570
T1 sequence (P30988 25-474): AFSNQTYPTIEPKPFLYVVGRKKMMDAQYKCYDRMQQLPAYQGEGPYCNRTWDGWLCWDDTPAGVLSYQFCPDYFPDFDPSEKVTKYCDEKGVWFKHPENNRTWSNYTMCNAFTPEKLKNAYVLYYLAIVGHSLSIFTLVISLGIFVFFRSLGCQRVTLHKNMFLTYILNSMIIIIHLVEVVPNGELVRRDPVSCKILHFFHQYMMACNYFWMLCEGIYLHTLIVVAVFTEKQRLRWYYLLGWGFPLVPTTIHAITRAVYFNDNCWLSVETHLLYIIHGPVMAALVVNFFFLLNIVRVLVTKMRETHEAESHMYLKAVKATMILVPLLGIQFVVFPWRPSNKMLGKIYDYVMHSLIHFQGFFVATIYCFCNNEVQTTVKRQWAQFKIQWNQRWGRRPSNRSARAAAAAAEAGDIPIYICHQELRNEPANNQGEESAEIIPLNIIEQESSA
T1 sequence (O60896 24-148 partner): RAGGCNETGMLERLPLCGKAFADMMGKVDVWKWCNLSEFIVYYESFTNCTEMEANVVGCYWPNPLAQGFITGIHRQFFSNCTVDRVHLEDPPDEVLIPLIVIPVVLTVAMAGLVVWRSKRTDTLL

[2] = Assay (III) ThT fibrillation assay for physical stability; type: physicochemical; details: ThT fibrillation assay
Description: ASSAY (III)—ThT Fibrillation Assays for the Assessment of Physical Stability of Protein formulations Low physical stability of a polypeptide may lead to amyloid fibril formation, which is observed as well-ordered, thread-like macromolecular structures in the sample eventually resulting in gel formation. This has traditionally been measured by visual inspection of the sample. However, that kind of measurement is very subjective and depending on the observer. Therefore, the application of a small molecule indicator probe is much more advantageous. Thioflavin T (ThT) is such a probe and has a distinct fluorescence signature when binding to fibrils [Naiki et al. (1989) Anal. Biochem. 177, 244-249; LeVine (1999) Methods. Enzymol. […], 274-284]. The time course for fibril formation can be described by a sigmoidal curve with the following expression [Nielsen et al. (2001) Biochemistry 40, 6036-6046]: [formula] Here, F is the ThT fluorescence at the time t. The constant t0 is the time needed to reach 50% of maximum fluorescence. […] Few of those intermediates nucleate to form a template onto which further intermediates may assembly and the fibrillation proceeds. The lag-time corresponds to the interval in which the critical mass of nucleus is built up and the apparent rate constant is the rate with which the fibril itself is formed. Sample Preparation Samples were prepared freshly before each assay. Each sample composition is described in each example. The pH of the sample was adjusted to the desired value using appropriate amounts of concentrated NaOH and HClO4 or HCl. Thioflavin T was added to the samples from a stock solution in H2O to a final concentration of 1 μM. Sample aliquots of 200 μl were placed in a 96 well microtiter plate (Packard OptiPlate™-96, white polystyrene). Usually, four or eight replica of each sample (corresponding to one test condition) were placed in one column of wells. The plate was sealed with Scotch Pad (Qiagen). Incubation and Fluorescence Measurement Incubation at given temperature, shaking and measurement of the ThT fluorescence emission were done in a Fluoroskan Ascent FL fluorescence platereader or Varioskan platereader (Thermo Labsystems). The temperature was adjusted to 37° C. The orbital shaking was adjusted to 960 rpm with an amplitude of 1 mm in all the presented data. Fluorescence measurement was done using excitation through a 444 nm filter and measurement of emission through a 485 nm filter. Each run was initiated by incubating the plate at the assay temperature for 10 min. The plate was measured every 20 minutes for a desired period of time. Between each measurement, the plate was shaken and heated as described. Data Handling The measurement points were saved in Microsoft Excel format for further processing and curve drawing and fitting was performed using GraphPad Prism. The background emission from ThT in the absence of fibrils was negligible. The data points are typically a mean of four or eight samples and shown with standard deviation error bars. Only data obtained in the same experiment (i.e. samples on the same plate) are presented in the same graph ensuring a relative measure of fibrillation between experiments. The data set may be fitted to Eq. (1). However, since full sigmodial curves in this case are not always achieved during the measurement time, the degree of fibrillation is expressed as ThT fluorescence tabulated as the mean of the samples and shown with the standard deviation at various time points. Measurement of Initial and Final Concentrations The polypeptide concentration in each of the tested formulations were measured both before application in the ThT fibrillation assay (“Initial”) and after completion of the ThT fibrillation (“After ThT assay”). Concentrations were determined by reverse HPLC methods using a pramlintide standard as a reference. Before measurement after completion 150 μl was collected from each of the replica and transferred to an Eppendorf tube. […]

[3] = biological target: T2, human calcitonin receptor (Homo sapiens, UniProt P30988); assay: Assay (II)a functional CRE-luciferase assay, human calcitonin receptor; type: cell-based
T2 construct: expressed in transfected cells; host or cells: BHK570
T2 sequence (P30988 25-474): T1 sequence (P30988 25-474)

[4] = Assay (IV) determination of solubility; type: physicochemical
Outline: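 Solubility is measured across pH 3.0–8.0 by mixing a ~500 nmol/ml aqueous polypeptide stock 1:1 with 100 mM glycylglycine or bistrispropane buffers. Samples stand 18 hours at room temperature, then are centrifuged and the soluble concentration is determined by HPLC.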

[5] = Table 7, human calcitonin (CTa) receptor
[6] = pH 3, pH 3.0, read-out: Solubility pH 3.0
[7] = pH 4, pH 4.0, 18 hours at room temperature, Table 2, read-out: Solubility pH 4.0
[8] = pH 4, pH 4.0, read-out: Solubility pH 4.0
[9] = pH 5, pH 5.0, read-out: Solubility pH 5.0
[10] = pH 6, pH 6.0, read-out: Solubility pH 6.0
[11] = pH 6.5, pH 6.5, read-out: Solubility pH 6.5
[12] = pH 7, pH 7.0, 18 hours at room temperature, Table 3, read-out: Solubility pH 7.0
[13] = pH 7, pH 7.0, read-out: Solubility pH 7.0
[14] = pH 7.5, pH 7.5, read-out: Solubility pH 7.5
[15] = pH 8, pH 8.0, read-out: Solubility pH 8.0
[16] = Table 2, BHK amylin 3(a)-receptor/CRE-luc cells
[17] = Table 3, BHK amylin 3(a)-receptor/CRE-luc cells
[18] = Table 11, read-out: CTa receptor human EC50

SMILES | pEC50 [3, 5] | solubility [4, 6] | solubility [4, 7] | solubility [4, 8] | solubility [4, 9] | solubility [4, 10] | solubility [4, 11] | solubility [4, 12] | solubility [4, 13] | solubility [4, 14] | solubility [4, 15] | pEC50 [1, 16] | pEC50 [1, 17] | pEC50 ([1]; Table 4) | pEC50 ([1]; Table 6, human amylin receptor) | pEC50 ([1]; Table 7, human amylin receptor) | pEC50 ([1]; Table 11) | pEC50 [3, 18] | other results
CC[C@H](C)[C@H](NC(=O)[C@@H]1CCCN1C(=O)CNC(=O)[C@H](Cc1ccccc1)NC(=O)[C@H](CC(N)=O)NC(=O)[C@H](CC(N)=O)NC(=O)[C@H](CO)NC(=O)[C@H](CO)NC(=O)[C@H](Cc1c[nH]cn1)NC(=O)[C@H](CCCNC(=N)N)NC(=O)[C@H](CC(C)C)NC(=O)[C@H](Cc1ccccc1)NC(=O)[C@H](CCC(=O)O)NC(=O)[C@H](C)NC(=O)[C@H](CC(C)C)NC(=O)[C@H](CCCNC(=N)N)NC(=O)[C@H](CCC(N)=O)NC(=O)[C@@H](NC(=O)[C@H](C)NC(=O)[C@@H]1CSSC[C@H](NC(=O)[C@H](CCCNC(=N)N)NC(=O)[C@H](CCC(=O)O)NC(=O)CC[C@H](NC(=O)CCCCCCCCCCCCCCCCCCC(=O)O)C(=O)O)C(=O)N[C@@H](CC(N)=O)C(=O)N[C@@H]([C@@H](C)O)C(=O)N[C@@H](C)C(=O)N[C@@H]([C@@H](C)O)C(=O)N1)[C@@H](C)O)C(=O)N[C@@H](CC(C)C)C(=O)N1CCC[C@H]1C(=O)N1CCC[C@H]1C(=O)N[C@H](C(=O)N[C@@H](CC(N)=O)C(=O)N[C@H](C(=O)NCC(=O)N[C@@H](CO)C(=O)N[C@@H](CC(N)=O)C(=O)N[C@H](C(=O)N1CCC[C@H]1C(N)=O)[C@@H](C)O)C(C)C)[C@@H](C)O [Example 156, N-alpha-[(S)-4-Carboxy-4-(19-carboxynonadecanoylamino)butyryl]-Glu-[Arg1,Glu14,Arg17,Pro37]-pramlintide] ({C20 diacid-γGlu}-ERCNTATCATQRLAEFLRHSSNNFGPILPPTNVGSNTP-NH2; disulfide 3-8 (inferred)) | 9.77 | – | – | – | – | – | – | – | – | – | – | – | – | – | – | – | – | – | pEC50 ([1]; Table 5): 10.18; ThT pH 4.0 lag time [2]: >45 h; ThT pH 4.0 lag time (h) [2]: >45 h
CC[C@H](C)[C@H](NC(=O)[C@@H]1CCCN1C(=O)CNC(=O)[C@H](Cc1ccccc1)NC(=O)[C@H](CC(N)=O)NC(=O)[C@H](CCC(=O)O)NC(=O)[C@H](CO)NC(=O)[C@H](CO)NC(=O)[C@H](Cc1c[nH]cn1)NC(=O)[C@H](Cc1c[nH]cn1)NC(=O)[C@H](CC(C)C)NC(=O)[C@H](Cc1ccccc1)NC(=O)[C@H](CCC(=O)O)NC(=O)[C@H](C)NC(=O)[C@H](CC(C)C)NC(=O)[C@H](CCCNC(=N)N)NC(=O)[C@H](CCC(N)=O)NC(=O)[C@@H](NC(=O)[C@H](C)NC(=O)[C@@H]1CSSC[C@H](NC(=O)[C@H](CCCCN)NC(=O)COCCOCCNC(=O)COCCOCCNC(=O)CC[C@H](NC(=O)CCCCCCCCCCCCCCCCCCC(=O)O)C(=O)O)C(=O)N[C@@H](CC(N)=O)C(=O)N[C@@H]([C@@H](C)O)C(=O)N[C@@H](C)C(=O)N[C@@H]([C@@H](C)O)C(=O)N1)[C@@H](C)O)C(=O)N[C@@H](CC(C)C)C(=O)N1CCC[C@H]1C(=O)N1CCC[C@H]1C(=O)N[C@H](C(=O)N[C@@H](CC(N)=O)C(=O)N[C@H](C(=O)NCC(=O)N[C@@H](CO)C(=O)N[C@@H](CC(N)=O)C(=O)N[C@H](C(=O)N1CCC[C@H]1C(N)=O)[C@@H](C)O)C(C)C)[C@@H](C)O [Example 167] ({C20 diacid-γGlu-AEEA-AEEA}-KCNTATCATQRLAEFLHHSSENFGPILPPTNVGSNTP-NH2; disulfide 2-7) | 9.95 | > 200 µM | > 200 µM | > 200 µM | > 200 µM | > 200 µM | > 200 µM | > 200 µM | > 200 µM | > 200 µM | > 200 µM | 9.69 | 9.69 | 9.69 | 9.69 | 9.69 | 9.69 | 9.95 | –
CC[C@H](C)[C@H](NC(=O)[C@@H]1CCCN1C(=O)CNC(=O)[C@H](Cc1ccccc1)NC(=O)[C@H](CC(N)=O)NC(=O)[C@H](CCCCN)NC(=O)[C@H](CO)NC(=O)[C@H](CO)NC(=O)[C@H](Cc1c[nH]cn1)NC(=O)[C@H](Cc1c[nH]cn1)NC(=O)[C@H](CC(C)C)NC(=O)[C@H](Cc1ccccc1)NC(=O)[C@H](CCC(=O)O)NC(=O)[C@H](C)NC(=O)[C@H](CC(C)C)NC(=O)[C@H](CCCNC(=N)N)NC(=O)[C@H](CCC(N)=O)NC(=O)[C@@H](NC(=O)[C@H](C)NC(=O)[C@@H]1CSSC[C@H](NC(=O)[C@H](CCCCN)NC(=O)COCCOCCNC(=O)COCCOCCNC(=O)CC[C@H](NC(=O)CCCCCCCCCCCCCCCCCCC(=O)O)C(=O)O)C(=O)N[C@@H](CC(N)=O)C(=O)N[C@@H]([C@@H](C)O)C(=O)N[C@@H](C)C(=O)N[C@@H]([C@@H](C)O)C(=O)N1)[C@@H](C)O)C(=O)N[C@@H](CC(C)C)C(=O)N1CCC[C@H]1C(=O)N1CCC[C@H]1C(=O)N[C@H](C(=O)N[C@@H](CC(N)=O)C(=O)N[C@H](C(=O)NCC(=O)N[C@@H](CO)C(=O)N[C@@H](CC(N)=O)C(=O)N[C@H](C(=O)N1CCC[C@H]1C(N)=O)[C@@H](C)O)C(C)C)[C@@H](C)O [Example 168, N-alpha-[2-(2-{2-[2-(2-{2-[(S)-4-Carboxy-4-(19-carboxyheptadecanoylamino)butyrylamino]ethoxy}ethoxy)acetylamino]ethoxy}ethoxy)acetyl]-[Glu14,His17,Lys21,Pro37]-pramlintide] ({C20 diacid-γGlu-AEEA-AEEA}-KCNTATCATQRLAEFLHHSSKNFGPILPPTNVGSNTP-NH2; disulfide 2-7) | 10.07 | > 200 µM | > 200 µM | > 200 µM | > 200 µM | > 200 µM | > 200 µM | > 200 µM | > 200 µM | > 200 µM | > 200 µM | 10.15 | 10.15 | 10.15 | 10.15 | 10.15 | 10.15 | 10.07 | –
